{
  "source": "patent US11841369B2",
  "about": "“Method for improving quality of therapeutic cell through real-time glutathione measurement” (CELL2IN, INC., priority 2017, dated 2023)",
  "key": {"T cells": {"tested_on": "T cells", "assay": "Anti-inflammatory effect of treated hUC-MSCs: T cell proliferation, T cell differentiation, Treg cell differentiation", "type": "cell-based", "settings": "hUC-MSCs treated with 125 or 250 μg/mL AA2G, three days", "description": "The inventors observed an effect of the material on stem cells by treating each stem cells with a material for enhancing a glutathione evaluation parameter. When hUC-MSCs were subcultured in a L-AA2G-containing medium, CFU-F, migration capacity, and an anti-inflammatory effect were observed. A CFU-F assay (n=3) was performed by treating hUC-MSCs with 125 or 250 μg/mL of AA2G for three days. As shown in FIGS. 16A and 16B, it was confirmed that, when AA2G was treated, CFU-F increased. In addition, as hUC-MSCs were treated with 125 or 250 μg/mL of AA2G for three days, PDGF-AA-induced migration capacity (n=3) was analyzed. As shown in FIGS. 17A and 17B, it was confirmed that the migration capacity was increased by AA2G treatment. In addition, the reduction in T cell proliferation, a reduction in T cell differentiation, and the promotion of Treg cell differentiation were observed by treating hUC-MSCs with 125 or 250 μg/mL of AA2G for three days.\nIn addition, hUC-MSCs were cultured with ferrostatin-1 (0.2, 1, 2 and 4 μM) and liproxstatin-1 (0.1, 0.5, 1 and 2 μM), which control a glutathione level in cells by inhibiting lipid oxidation. […] Meanwhile, the hUC-MSCs were treated with 1 μM ferrostatin-1 for 24 hours, 0.2 mM GGC for 2 hours, and 2 mM GSH-EE for 2 hours. As a result, the reduction in T cell proliferation ability and the reduction in T cell differentiation capacity were observed, and promotion of Treg cell differentiation was observed."}, "hUC-MSCs": {"tested_on": "hUC-MSCs", "assay": "Oxidative stress resistance capacity (ORC) analysis with RSL3", "type": "cell-based, human", "settings": "hUC-MSCs subcultured three times with AA2G 250 μg/mL, vs naive cell group (NC)", "description": "In addition, GH is calculated as the coefficient of variation or robust coefficient of variation of cellular FR. GRC refers to a value obtained by real-time monitoring of FR after living cells are treated with an oxidizing agent, as calculated by dividing a value obtained by subtracting AUC of a group treated with 0.1-100 mM N-ethylmaleimide (NEM) from FR AUC of an oxidizing agent (diamide, H2O2, etc.)-treated group by a value obtained by subtracting the AUC of NEM-treated group from AUC of the untreated control, and multiplying the resulting value by 100. The FR of the NEM-treated group is a value for increasing the sensitivity of a GRC value by treating it as the blank value of the FR of the cells of interest. […] To remove the MitoFreSH-Tracer from the medium before measurement, the medium was exchanged with fresh 10 mM HEPES-containing HBSS, and a fluorescence image was obtained using a confocal imaging system, Operetta. By comparing GSH levels quantified from control cells not treated with RSL3 or control cells before treated with RSL3, the distribution of GSH expression-changed cells was calculated. Based on the point where the distribution histogram is divided into two peaks, the cells were divided into GSH^High cells (right peak) and GSH^Low cells (left peak), and then a ratio of corresponding cells was expressed as a percentage (%). […]"}},
  "data": [
    {"compound": "O=C1O[C@H]([C@@H](O)CO)C(O)=C1O[C@H]1O[C@H](CO)[C@@H](O)[C@H](O)[C@H]1O", "note": "[AA2G, ascorbic acid 2-glucoside]", "values": [
      {"measurement": "T cell differentiation", "setting": "T cells", "value": "reduction"},
      {"measurement": "T cell proliferation", "setting": "T cells", "value": "reduction"},
      {"measurement": "Treg cell differentiation", "setting": "T cells", "value": "promotion"},
      {"measurement": "anti-inflammatory effect of stem cells", "setting": "T cells", "value": "exhibited"},
      {"measurement": "FreSH-Tracer-based ORC (GSH^High cells)", "setting": "hUC-MSCs", "value": "higher"}
    ]}
  ]
}
